Molecules are shown by their SMILES.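 Values below derive from 48-hour exposures of cells grown in 96-well plates, with endpoints linearly interpolated between the two concentrations bracketing the appropriate inhibition level. GI50 is the concentration that inhibits growth by half. TGI denotes the concentration required for complete inhibition of growth.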

What all share (test): NCI anticancer screen, dose series, 48 h
The subject of experiment [1] is OVCAR-8 ovarian.
The subject of experiment [2] is A549 NSCLC.
Experiment [3] deals with SK-MEL-2 melanoma.
Experiment [4] relates to LOX IMVI melanoma.
Experiment [5] concerns U251 CNS.
Experiment [6] relates to HS 578T breast.
The subject of experiment [7] is A498 renal.
Experiment [8] deals with EKVX NSCLC.
In experiment [9] the test system is NCI-H522 lung.
Experiment [10] has as its system ACHN renal.

Consider `CC1(C)OC[C@@]2([C@@H]3CC[C@@H](C3)C2(C)C)N1O`, for which the TGI in experiment [1], in experiment [2], in [3], in experiment [4], in [5] and in experiment [6] was more than 100 µM in each case. For the same compound, the TGI in experiment [7], in experiment [8], in experiment [9] and in [10] was more than 100 µM each time.

On to `CC1(C)OC2CN(C(=O)OCc3ccccc3)C(CO)C2O1` (configuration not stated), for which the TGI in experiment [1], in [2], in experiment [3], in experiment [4], in [5] and in [6] was more than 100 µM each time. Moreover, the TGI in experiment [7], in experiment [8], in experiment [9] and in [10] was more than 100 µM throughout.

Take `CCOC(=O)C1(Cc2ccccc2)CCN(C(=O)c2ccccc2)C2C1C2(Cl)Cl` (configuration not stated): the TGI was 77.4 µM in experiment [1]; more than 100 µM in [2]; 31.1 µM in experiment [3]; 34.5 µM in [4]; 32.6 µM in experiment [5]; 71.5 µM in experiment [6]. Also, the TGI in experiment [7] is 40 µM; in [8], 71.7 µM; in experiment [9], 42.5 µM; in experiment [10], 54.8 µM.

On to `COC(=O)CC1(O)C(C=C(C)C)C(C(=O)OC)C(=O)C(C(=O)OC)C1C(=O)OC` (configuration not stated), for which the TGI in [1], in experiment [2], in [3], in [4], in [5] and in [6] was more than 100 µM each time. In addition, the TGI in experiment [7], in [8], in experiment [9] and in [10] was more than 100 µM throughout.

For `COc1ccc(C2c3cc4c(cc3OC(N3CCOCC3)C2C)OCO4)c(OC)c1` (configuration not stated), the TGI in experiment [1] is more than 74.7 µM; in experiment [2] it was 58 µM; in experiment [3], 21.7 µM; in experiment [4], 23.8 µM; in experiment [5] it was 15.5 µM; in [6], 8.22 µM. Also, the TGI was 15 µM in [7], more than 85.3 µM in [8], 8.95 µM in experiment [9] and 93.8 µM in experiment [10].

Turning to `c1ccc2c(Cc3c[nH]c4ccccc34)c[nH]c2c1`, the TGI stood at 42.8 µM in experiment [1]; 57 µM in experiment [2]; 52.6 µM in [3]; 49.8 µM in experiment [4]; 37.2 µM in [5]; 63.3 µM in experiment [6]. Moreover, the TGI in experiment [7] was more than 100 µM; in experiment [8], 32.5 µM; in experiment [9], 47.9 µM; in experiment [10], more than 100 µM.

With `CCO[C@H]1C[C@@H](c2ccccc2)[C@]2(C)C[C@H](C(=O)OC)ON2O1`, the TGI in experiment [1], in experiment [2], in experiment [3], in experiment [4], in [5] and in experiment [6] was more than 100 µM in each case. For the same compound, the TGI in experiment [7], in experiment [8], in experiment [9] and in experiment [10] was more than 100 µM in each case.

`CC1(C)SC2C(NC(=O)Cc3ccccc3)C(=O)N2C1C(=O)O` (configuration not stated): the TGI in experiment [1], in experiment [2], in experiment [3], in experiment [4], in [5] and in [6] was more than 100 µM each time. For the same compound, the TGI in experiment [7], in [8], in [9] and in experiment [10] was more than 100 µM throughout.

With `Cc1ccc(N2C(=O)CC(=O)N(NC(=O)C(C)Oc3ccccc3C)C2=S)cc1` (configuration not stated), the TGI in [1], in experiment [2], in experiment [3], in experiment [4], in experiment [5] and in [6] was more than 100 µM in each case. Besides, the TGI in [7], in experiment [8], in [9] and in experiment [10] was more than 100 µM throughout.

For the compound `CNC(=O)CNC(=O)CCC(=O)N(C)C`, the TGI in experiment [1], in experiment [2], in experiment [3], in experiment [4], in [5] and in experiment [6] was more than 100 µM in each case. Further, the TGI in [7], in experiment [8], in experiment [9] and in experiment [10] was more than 100 µM each time.

For the compound `CCOC(=O)NC(N(C)C(C(C)C)P(=O)(OCC)OCC)(C(F)(F)F)C(F)(F)F` (configuration not stated), the TGI in experiment [1], in [2], in experiment [3], in [4], in [5] and in experiment [6] was more than 100 µM each time. Besides, the TGI in experiment [7], in experiment [8], in [9] and in [10] was more than 100 µM each time.

In the case of `Cn1c2ccccc2n2c3ccccc3c(=S)c(C#N)c12`, the TGI in [1], in experiment [2], in [3], in experiment [4], in [5] and in experiment [6] was more than 100 µM each time. Besides, the TGI in experiment [7], in experiment [8], in experiment [9] and in experiment [10] was more than 100 µM throughout.

As to `O=[N+]([O-])/C(C(Cl)=C(Cl)Cl)=C(/Sc1ccccc1)N1CCOCC1`, the TGI was 4.06 µM in experiment [1]; 41.7 µM in experiment [2]; 18.1 µM in [3]; 3.04 µM in experiment [4]; 23.5 µM in experiment [5]; 59.5 µM in experiment [6]. Besides, the TGI in experiment [7] was determined as 28.1 µM; in experiment [8], 25.7 µM; in experiment [9] it was 9.36 µM; in experiment [10] it was 15 µM.

In the case of `COc1ccc(NC(C)=O)c(C(=O)CCNC(C)=O)c1`, the TGI in experiment [1], in experiment [2], in experiment [3], in experiment [4], in experiment [5] and in experiment [6] was more than 100 µM in each case. The TGI in experiment [7], in experiment [8], in experiment [9] and in [10] was more than 100 µM throughout.

As to `COC(=O)c1ccc(NCC2=CC(=O)c3ccccc3C2=O)cc1`, the TGI in experiment [1] is more than 100 µM; in experiment [2], 96.7 µM; in [3], 42.2 µM; in experiment [4], 23.3 µM; in [5], 63 µM; in experiment [6], 76.4 µM. Moreover, the TGI turned out to be 54.2 µM in [7], 66.5 µM in experiment [8], 42.3 µM in [9] and 42.4 µM in experiment [10].

In the case of `O=C1CNc2cc(N3CCN(c4cccc(C(F)(F)F)c4)CC3)ccc2N1`, the TGI in experiment [1], in [2], in [3], in experiment [4], in experiment [5] and in experiment [6] was more than 100 µM in each case. Moreover, the TGI in [7] was more than 100 µM; in experiment [8], more than 100 µM; in [9], 46 µM; in experiment [10] it was more than 100 µM. For the same compound, the GI50 in [7] is 24.7 µM.

With `CC(=O)O/C(=C(/C#N)C(=O)O)C1C(C(=O)O)C(c2ccccc2[N+](=O)[O-])C=C(c2ccco2)N1c1ccncc1` (configuration not stated), the TGI worked out at 14.6 µM in [1]; 26.7 µM in experiment [2]; 22.2 µM in [3]; 5.78 µM in experiment [4]; 4.89 µM in experiment [5]; 42 µM in [6]. The TGI in experiment [7] came to 25 µM; in [8] it was 22.1 µM; in experiment [9] it was 11.3 µM; in experiment [10], 4.5 µM.

As to `O=[N+]([O-])C(=C/C1CCCCC1)/C(=C\C1CCCCC1)[N+](=O)[O-]`, the TGI was more than 27.3 µM in experiment [1]; 49 µM in [2]; 37.8 µM in [3]; 4.94 µM in experiment [4]; 14.7 µM in [5]; 18.4 µM in [6]. The TGI is 30 µM in experiment [7], 24.9 µM in experiment [8], 4.3 µM in [9] and 10.7 µM in experiment [10].

Take `C(/C=N/NC1=NCCN1)=N\NC1=NCCN1`: the TGI in [1], in [2], in [3], in [4], in [5] and in [6] was more than 100 µM in each case. The TGI in experiment [7], in experiment [8], in experiment [9] and in experiment [10] was more than 100 µM throughout.

Consider `C=CCOc1ccc(C2c3c([nH][nH]c3=O)CC(C)(O)C2C(=O)OC)cc1OC` (configuration not stated), for which the TGI in experiment [1], in [2], in experiment [3], in [4], in [5] and in experiment [6] was more than 100 µM throughout. In addition, the TGI in experiment [7], in experiment [8], in experiment [9] and in experiment [10] was more than 100 µM in each case.

For `OCCCN(CCc1ccc(Cl)c(Cl)c1)CCN1CCCC1`, the TGI in experiment [1] was more than 100 µM; in experiment [2] it was more than 100 µM; in experiment [3], 36.6 µM; in experiment [4] it was more than 100 µM; in [5], more than 100 µM; in experiment [6] it was more than 100 µM. For the same compound, the TGI was 44.6 µM in experiment [7], more than 100 µM in experiment [8], 54.5 µM in [9] and more than 100 µM in experiment [10].

For the compound `CN(C)CCCNC(=O)CNC(=O)c1cc(NC(=O)c2cc(NC(=O)c3cc(NC(=O)CCNC(=O)c4cc(NC(=O)c5cc(NC(=O)c6nccn6C)cn5C)cn4C)cn3C)cn2C)cn1C`, the TGI in [1], in [2], in [3], in experiment [4], in experiment [5] and in experiment [6] was more than 100 µM each time. Moreover, the TGI in [7], in experiment [8], in experiment [9] and in experiment [10] was more than 100 µM throughout.

For `COc1ccc(CN=C2Nc3ccncc3S(=O)(=O)N2c2ccccc2)cc1`, the TGI in experiment [1], in [2], in experiment [3], in experiment [4], in [5] and in [6] was more than 100 µM each time. Further, the TGI in [7], in experiment [8], in experiment [9] and in experiment [10] was more than 100 µM throughout.

With `O=C(/C(Cl)=C/c1ccccc1)c1ccccc1`, the TGI in experiment [1] is 17.1 µM; in experiment [2], 34.1 µM; in experiment [3] it was 28.6 µM; in experiment [4], 8.8 µM; in [5], more than 40.1 µM; in experiment [6], 15 µM. In addition, the TGI stood at 46.1 µM in [7], 25.6 µM in experiment [8], 3.76 µM in experiment [9] and 4.81 µM in experiment [10].

For the compound `O=C(c1ccco1)N1CCN(C(=O)c2ccco2)C1=S`, the TGI in [1] is 62.5 µM; in experiment [2] it was 35.5 µM; in experiment [3], 31 µM; in [4], 14.9 µM; in experiment [5], 24 µM; in [6], more than 100 µM. Further, the TGI in experiment [7] came to 35.8 µM; in [8] it was 36.7 µM; in experiment [9], 19.4 µM; in experiment [10], 22.3 µM. The GI50 in experiment [7] was 16.6 µM.

As to `CCCCCC(/C=N/NC(N)=S)C(O)(C(F)(F)F)C(F)(F)F` (configuration not stated), the TGI in [1], in [2], in [3], in experiment [4], in experiment [5] and in experiment [6] was more than 10 µM in each case. The TGI in experiment [7], in [8], in experiment [9] and in experiment [10] was more than 10 µM in each case.
